The values that follow come from US20250235462A1, “NOVEL CAPSID ASSEMBLY INHIBITORS” (AM SCIENCES INC, priority 2021, published 2025).

One data set concerns HepAD38 cells. The data set can be described thus: Cell viability assay (EZ-Cytox) in HepAD38 cells. It is filed as cell-based. The conditions noted are these: 65 hours of treatment. The protocol: (§1) HepAD38 cells were cultured for 2 days in Dulbecco's Modified Eagle's medium (Welgene, LM001-05) supplemented with 10% FBS without tetracycline. The cells were seeded in 48-well culture plates (1×10^5 cells/well) and treated with each compound at five concentrations (0 μM (0.8% DMSO as a control), 33 μM, 50 μM, 66 μM, and 100 μM). After 65 hours of treatment, viability was measured using EZ-Cytox cell viability assay kit (Daeil Lab Service) according to the manufacturer's instructions. The absorbance was measured at 450 nm using a spectrophotometer (Spark, Tecan). Here, NVR-3-778 (denoted as NVR) was used as a positive control.

A short description of data set [1]: Cell viability assay (EZ-Cytox) in HepAD38 cells. Type of data set: cell-based. The conditions noted are these: human, 65 hours of treatment; for CC50 at 65 h: read-out: Cytotoxicity CC50; for viability at 65 h, 100 µM: read-out: Cytotoxicity % Livability (@100 μM). The procedure:
as §1

The next data set concerns intracellular HBV DNA. The data set can be described thus: Real-time PCR for intracellular HBV DNA in HepAD38 cells. It is filed as cell-based, hepatitis B virus (HBV). The conditions noted are these: treated for 65 hours, intracellular HBV DNA by real-time PCR.
Data set [2] deals with Protein (capsid assembly) (Hepatitis B virus genotype D subtype ayw, UniProt P03146). As to the kind of experiment: Protein inhibition (capsid assembly inhibition), Table 1. It is filed as biochemical. To be noted: for inhibition at 30 µM: read-out: Protein % inhibition rate (@30 μM); for EC50: NVR value of the same run in brackets, read-out: Protein EC50.
Chain of Protein (capsid assembly) (P03146 whole entry): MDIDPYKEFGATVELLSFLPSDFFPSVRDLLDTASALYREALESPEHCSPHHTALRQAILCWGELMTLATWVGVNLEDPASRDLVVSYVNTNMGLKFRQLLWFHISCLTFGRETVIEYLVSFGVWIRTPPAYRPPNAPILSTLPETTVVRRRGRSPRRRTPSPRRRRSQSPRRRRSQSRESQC
[3] abbreviates: Hepatitis B virus, HePAD38, 65 h.

Regarding `COc1ccc(N(Cc2nnc3n2CCOCC3)C(=O)Nc2ccc(F)c(Cl)c2)cn1` [Example 40, 3-(3-Chloro-4-fluorophenyl)-1-(6-methoxypyridin-3-yl)-1-((5,6,8,9-tetrahydro-[1,2,4]triazolo[4,3-d][1,4]oxazepin-3-yl)methyl)urea], in the data set with HepAD38 cells (@100 μM), the “Cytotoxicity % Livability (@100 μM)” value turned out to be 100.3%. Also, in data set [1], the CC50 at 65 h was > 100000 nM and the viability at 65 h, 100 µM was 88.6%. This compound also registered an IC50 in the data set with intracellular HBV DNA (setting [3]) of 84 nM. In addition, the inhibition at 30 µM in data set [2] (@30 μM) came to 82.8%. Besides, the EC50 in data set [2] is 1500 nM.

As for `O=C(Nc1ccc(F)c(Cl)c1)N(Cc1nnc2n1CCOC2)c1ccc2c(c1)OCO2` [Example 4, 1-(Benzo[d][1,3]dioxol-5-yl)-3-(3-chloro-4-fluorophenyl)-1-((6,8-dihydro-5H-[1,2,4]triazolo[3,4-c][1,4]oxazin-3-yl)methyl)urea], the CC50 in the data set on HepAD38 cells (read-out: Cytotoxicity CC50) was > 100000 nM. In the data set with intracellular HBV DNA, this compound returned an IC50 of 250 nM. In addition, the “Protein % inhibition rate (@30 μM)” value in data set [2] (@30 μM) is given as 84%. Also, the EC50 in data set [2] is 6800 nM.

Consider `CC(C)Oc1ccc(N(Cc2nnc3n2CCCCC3)C(=O)Nc2ccc(F)c(Cl)c2)cc1` [Example 12, 3-(3-Chloro-4-fluorophenyl)-1-(4-isopropoxyphenyl)-1-((6,7,8,9-tetrahydro-5H-[1,2,4]triazolo[4,3-a]azepin-3-yl)methyl)urea], for which, in data set [1], the CC50 at 65 h was > 100000 nM and the viability at 65 h, 100 µM is 93.2%. For the same compound, the IC50 in the data set with intracellular HBV DNA (setting [3]) came out at 110 nM. Further, in data set [2] (@30 μM), the inhibition at 30 µM was determined as 95%. Moreover, the half-maximal effective concentration (EC50) in data set [2] was 2500 nM.
